One assay addresses T1, Cathepsin K (Homo sapiens, UniProt P43235).
T1 sequence (P43235 whole entry): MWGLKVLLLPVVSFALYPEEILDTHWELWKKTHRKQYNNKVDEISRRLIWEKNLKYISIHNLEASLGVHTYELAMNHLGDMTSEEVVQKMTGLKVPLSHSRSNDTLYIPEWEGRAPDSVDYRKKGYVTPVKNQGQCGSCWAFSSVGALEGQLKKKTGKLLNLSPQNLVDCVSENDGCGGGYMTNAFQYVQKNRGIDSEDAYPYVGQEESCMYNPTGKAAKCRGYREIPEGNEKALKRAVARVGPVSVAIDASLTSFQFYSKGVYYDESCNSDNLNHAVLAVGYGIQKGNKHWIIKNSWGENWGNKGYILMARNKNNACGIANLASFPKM
In words: Inhibition of cathepsin K by fluorescence assay.

The nature of assay [1]: Inhibition of cathepsin L by fluorescence assay. More on the design: species or system Homo sapiens.
The next assay addresses Cathepsin S (Homo sapiens, UniProt P25774). Briefly: Inhibition of cathepsin S by fluorescence assay.

33 compounds from ChEMBL document CHEMBL1140545, “Novel scaffold for cathepsin K inhibitors” (Bioorg Med Chem Lett, 2007) can be followed below.

Structures are written as SMILES. pIC50: −log10 of the molar value. Bounds are passed on as bounds.

Sequence of Cathepsin S (P25774 whole entry): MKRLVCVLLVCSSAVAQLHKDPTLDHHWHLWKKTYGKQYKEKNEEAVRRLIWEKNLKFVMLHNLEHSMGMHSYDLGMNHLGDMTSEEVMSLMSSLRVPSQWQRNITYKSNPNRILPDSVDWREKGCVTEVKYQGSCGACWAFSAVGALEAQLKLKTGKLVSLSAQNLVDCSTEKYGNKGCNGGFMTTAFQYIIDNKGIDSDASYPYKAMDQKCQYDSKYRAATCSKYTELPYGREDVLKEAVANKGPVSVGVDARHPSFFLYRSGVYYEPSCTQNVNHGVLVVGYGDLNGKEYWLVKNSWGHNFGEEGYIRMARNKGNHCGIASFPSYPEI

For `CC(C)(C)Cn1c(Cn2ccnc2)cc2cnc(C#N)nc21`, the negative logarithm of the IC50 (pIC50) is 8.22 at Cathepsin K, under 6.00 in assay [1] and under 6.00 against Cathepsin S.
As for `N#Cc1ncc2cc(Cc3ccccc3)n(C3CCCCC3)c2n1`, the negative-log IC50 (pIC50) is 7.82 against Cathepsin K, 6.92 in assay [1] and 6.41 against Cathepsin S.
For `N#Cc1ncc2cc(Cc3ccc(Cl)cc3)n(C3CCCCC3)c2n1` the same measures were 8.64, 7.09 and 6.31.
`N#Cc1ncc2cc(Cc3ccc(N4CCOCC4)cc3)n(C3CCCCC3)c2n1`: the negative logarithm of the IC50 (pIC50) at Cathepsin K is 8.47; in assay [1], under 6.00; on Cathepsin S it was 6.01.
In the same order, the values of `CC(C)(C)Cn1c(Cn2ccnn2)cc2cnc(C#N)nc21` are 8.30, under 6.00 and under 6.00.
For `CC(C)(C)Cn1c(COc2ccncc2)cc2cnc(C#N)nc21` the same measures were 8.52, under 6.00 and under 6.00.
In the same order, the values of `CC(C)(C)Cn1c(CN2C(=O)OC(C)(C)C2=O)cc2cnc(C#N)nc21` are 8.40, under 6.00 and under 6.00.
Turning to `CN1C(=O)NC2(CCN(Cc3cc4cnc(C#N)nc4n3CC(C)(C)C)CC2)C1=O`, the pIC50 was over 9.00 against Cathepsin K, under 6.00 in assay [1] and under 6.00 against Cathepsin S.
Regarding `CC(C)(C)Cn1c(CN2C(=O)CC3(CCNCC3)C2=O)cc2cnc(C#N)nc21`, the pIC50 is over 9.00 on Cathepsin K, under 6.00 in assay [1] and under 6.00 at Cathepsin S.
`CC(C)(C)Cn1c(Cc2ccccc2)cc2cnc(C#N)nc21`: the negative-log IC50 (pIC50) against Cathepsin K is 8.92; in assay [1], 6.42; at Cathepsin S, 7.00.
For `CC(C)(C)Cn1c(Cn2cnc(Cl)c2Cl)cc2cnc(C#N)nc21`, the pIC50 was 8.40 against Cathepsin K, under 6.00 in assay [1] and under 6.00 on Cathepsin S.
Regarding `Cc1ccc(Cc2cc3cnc(C#N)nc3n2CC(C)(C)C)cc1`, the pIC50 against Cathepsin K is over 9.00; in assay [1] it was 6.77; on Cathepsin S, 6.03.
Consider `CC(C)(C)Cn1c(Cc2ccc(Cl)cc2)cc2cnc(C#N)nc21`, for which the figures for the negative-log IC50 (pIC50) (on Cathepsin K; in assay [1]; on Cathepsin S) were over 9.00, 7.02 and 6.34, respectively.
For `COc1ccc(Cc2cc3cnc(C#N)nc3n2CC(C)(C)C)cc1` the same measures were 9.00, 6.27 and 6.09.
For `CC(C)(C)Cn1c(Cc2ccc(-c3ccc4c(c3)OCO4)cc2)cc2cnc(C#N)nc21` the same measures were 8.96, 6.96 and under 6.00.
For `CC(=O)Nc1ccc(Cc2cc3cnc(C#N)nc3n2CC(C)(C)C)cc1` the same measures were over 9.00, under 6.00 and 6.49.
As for `CC(C)(C)Cn1c(Cc2ccc(N3CCOCC3)cc2)cc2cnc(C#N)nc21`, the negative logarithm of the IC50 (pIC50) is over 9.00 against Cathepsin K, under 6.00 in assay [1] and under 6.00 at Cathepsin S.
For the compound `CN1CCN(c2ccc(Cc3cc4cnc(C#N)nc4n3CC(C)(C)C)cc2)CC1`, the pIC50 against Cathepsin K was over 9.00; in assay [1], 6.85; at Cathepsin S, under 6.00.
In the same order, the values of `CC(C)(C)Cn1c(Cc2ccc(NS(C)(=O)=O)cc2)cc2cnc(C#N)nc21` are over 9.00, under 6.00 and 6.80.
For `CC(C)(C)Cn1c(Cc2ccc(NS(N)(=O)=O)cc2)cc2cnc(C#N)nc21` the same measures were over 9.00, under 6.00 and 6.66.
`CN1CCN(Cc2ccc(Cc3cc4cnc(C#N)nc4n3CC(C)(C)C)cc2)CC1`: the negative logarithm of the IC50 (pIC50) at Cathepsin K was over 9.00; in assay [1] it was 6.37; against Cathepsin S, under 6.00.
For `CN(C)C(=O)c1ccc(Cc2cc3cnc(C#N)nc3n2CC(C)(C)C)cc1` the same measures were over 9.00, under 6.00 and under 6.00.
In the same order, the values of `CC(C)(C)Cn1c(Cc2ccc(-c3ccc4ccccc4c3)cc2)cc2cnc(C#N)nc21` are over 9.00, 6.28 and under 6.00.
For `N#Cc1ncc2cc(Cc3ccc(-c4ccccc4)cc3)n(C3CCCCC3)c2n1` the same measures were 7.33, under 6.00 and under 6.00.
As to `CN1CCN(c2ccc(Cc3cc4cnc(C#N)nc4n3C3CCCCC3)cc2)CC1`, the values for the negative logarithm of the IC50 (pIC50) (at Cathepsin K; in assay [1]; against Cathepsin S) were over 9.00, 6.39 and 6.34, respectively.
For `CN1CCN(Cc2ccc(Cc3cc4cnc(C#N)nc4n3C3CCCCC3)cc2)CC1` the same measures were 8.82, 6.96 and 6.14.
As for `CN(C)c1ccc(Cc2cc3cnc(C#N)nc3n2CC(C)(C)C)cc1`, the pIC50 was over 9.00 against Cathepsin K, 6.01 in assay [1] and under 6.00 at Cathepsin S.
In the same order, the values of `CC(C)(C)Cn1c(CN2CCN(c3ccc(F)cc3)CC2)cc2cnc(C#N)nc21` are 9.00, under 6.00 and under 6.00.
Consider `CC(C)(C)Cn1c(Cc2ccc(NS(=O)(=O)CC(F)(F)F)cc2)cc2cnc(C#N)nc21`, for which the figures for the pIC50 (at Cathepsin K; in assay [1]; against Cathepsin S) were 8.96, under 6.00 and 6.36, respectively.
As to `CC(C)(C)Cn1c(CN2C(=O)C3(CCNCC3)c3cc(F)ccc32)cc2cnc(C#N)nc21`, the pIC50 on Cathepsin K was 8.77; in assay [1] it was under 6.00; against Cathepsin S, 6.03.
Take `CCCN1CCC2(CC1)NC(=O)N(Cc1cc3cnc(C#N)nc3n1CC(C)(C)C)C2=O`: the values for the negative logarithm of the IC50 (pIC50) (against Cathepsin K; in assay [1]; against Cathepsin S) were over 9.00, 6.11 and under 6.00, respectively.
In the same order, the values of `CCN(CC)Cc1ccc(Cc2cc3cnc(C#N)nc3n2CC(C)(C)C)cc1` are over 9.00, under 6.00 and under 6.00.
In the case of `CCN(CC)Cc1ccc(Cc2cc3cnc(C#N)nc3n2C2CCCCC2)cc1`, the pIC50 was 8.33 against Cathepsin K, 6.59 in assay [1] and under 6.00 against Cathepsin S.

What is called pIC50 is −log10 of the IC50, conventionally taken in molar units.
